Holding throughout (test): SelectScreen kinase assay
Experiment [1] has as its target T1, AURKC (Aurora C) (Homo sapiens, UniProt Q9UQB9).
T1 sequence (Q9UQB9 1-309): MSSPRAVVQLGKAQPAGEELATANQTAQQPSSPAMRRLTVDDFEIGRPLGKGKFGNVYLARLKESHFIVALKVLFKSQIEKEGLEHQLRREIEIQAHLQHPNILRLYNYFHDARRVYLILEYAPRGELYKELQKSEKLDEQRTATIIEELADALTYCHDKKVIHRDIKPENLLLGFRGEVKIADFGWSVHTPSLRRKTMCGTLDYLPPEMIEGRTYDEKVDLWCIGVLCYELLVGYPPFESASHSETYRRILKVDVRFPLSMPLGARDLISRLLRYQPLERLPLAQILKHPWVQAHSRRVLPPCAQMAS

The target in experiment [2] is T2, STK17A (DRAK1) (Homo sapiens, UniProt Q9UEE5).
T2 sequence (Q9UEE5 1-414): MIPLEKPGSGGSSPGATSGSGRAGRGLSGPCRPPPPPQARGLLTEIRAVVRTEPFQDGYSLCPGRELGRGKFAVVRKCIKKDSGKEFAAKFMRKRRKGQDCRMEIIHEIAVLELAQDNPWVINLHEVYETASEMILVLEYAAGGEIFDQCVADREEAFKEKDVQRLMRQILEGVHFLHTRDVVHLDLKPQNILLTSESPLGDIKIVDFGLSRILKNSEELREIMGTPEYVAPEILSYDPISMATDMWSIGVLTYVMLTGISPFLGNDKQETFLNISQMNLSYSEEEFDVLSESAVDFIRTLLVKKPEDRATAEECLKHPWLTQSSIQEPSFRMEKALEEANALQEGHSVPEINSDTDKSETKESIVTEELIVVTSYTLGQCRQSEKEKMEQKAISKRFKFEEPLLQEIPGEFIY

Experiment [3] addresses T3, TBK1 (Homo sapiens, UniProt Q9UHD2).
T3 sequence (Q9UHD2 1-729): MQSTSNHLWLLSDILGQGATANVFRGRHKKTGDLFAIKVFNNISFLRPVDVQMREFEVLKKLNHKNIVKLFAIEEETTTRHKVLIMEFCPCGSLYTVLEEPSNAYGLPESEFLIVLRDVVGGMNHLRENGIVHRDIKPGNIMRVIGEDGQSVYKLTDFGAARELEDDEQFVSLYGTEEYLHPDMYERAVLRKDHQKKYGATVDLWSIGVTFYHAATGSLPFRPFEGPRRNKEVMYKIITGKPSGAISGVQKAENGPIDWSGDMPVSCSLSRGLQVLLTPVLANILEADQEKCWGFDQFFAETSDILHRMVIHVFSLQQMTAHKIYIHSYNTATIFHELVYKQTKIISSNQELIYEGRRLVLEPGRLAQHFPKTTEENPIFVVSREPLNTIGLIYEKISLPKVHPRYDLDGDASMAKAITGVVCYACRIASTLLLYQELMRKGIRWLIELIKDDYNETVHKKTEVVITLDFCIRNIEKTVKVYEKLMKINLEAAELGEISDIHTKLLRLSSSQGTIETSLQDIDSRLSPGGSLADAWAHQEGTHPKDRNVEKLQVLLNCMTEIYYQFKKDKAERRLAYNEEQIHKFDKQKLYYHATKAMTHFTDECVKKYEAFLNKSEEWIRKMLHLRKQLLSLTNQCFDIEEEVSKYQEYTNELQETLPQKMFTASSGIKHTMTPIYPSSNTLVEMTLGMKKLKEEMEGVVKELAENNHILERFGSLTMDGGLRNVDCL

For experiment [4], the target named is PIM3 (Homo sapiens, UniProt Q86V86).
Experiment [5] concerns the target CDK2/cyclin A (Homo sapiens, UniProt P24941).
In experiment [6] the target is T4, PLK4 (Homo sapiens, UniProt O00444).
T4 sequence (O00444 1-970): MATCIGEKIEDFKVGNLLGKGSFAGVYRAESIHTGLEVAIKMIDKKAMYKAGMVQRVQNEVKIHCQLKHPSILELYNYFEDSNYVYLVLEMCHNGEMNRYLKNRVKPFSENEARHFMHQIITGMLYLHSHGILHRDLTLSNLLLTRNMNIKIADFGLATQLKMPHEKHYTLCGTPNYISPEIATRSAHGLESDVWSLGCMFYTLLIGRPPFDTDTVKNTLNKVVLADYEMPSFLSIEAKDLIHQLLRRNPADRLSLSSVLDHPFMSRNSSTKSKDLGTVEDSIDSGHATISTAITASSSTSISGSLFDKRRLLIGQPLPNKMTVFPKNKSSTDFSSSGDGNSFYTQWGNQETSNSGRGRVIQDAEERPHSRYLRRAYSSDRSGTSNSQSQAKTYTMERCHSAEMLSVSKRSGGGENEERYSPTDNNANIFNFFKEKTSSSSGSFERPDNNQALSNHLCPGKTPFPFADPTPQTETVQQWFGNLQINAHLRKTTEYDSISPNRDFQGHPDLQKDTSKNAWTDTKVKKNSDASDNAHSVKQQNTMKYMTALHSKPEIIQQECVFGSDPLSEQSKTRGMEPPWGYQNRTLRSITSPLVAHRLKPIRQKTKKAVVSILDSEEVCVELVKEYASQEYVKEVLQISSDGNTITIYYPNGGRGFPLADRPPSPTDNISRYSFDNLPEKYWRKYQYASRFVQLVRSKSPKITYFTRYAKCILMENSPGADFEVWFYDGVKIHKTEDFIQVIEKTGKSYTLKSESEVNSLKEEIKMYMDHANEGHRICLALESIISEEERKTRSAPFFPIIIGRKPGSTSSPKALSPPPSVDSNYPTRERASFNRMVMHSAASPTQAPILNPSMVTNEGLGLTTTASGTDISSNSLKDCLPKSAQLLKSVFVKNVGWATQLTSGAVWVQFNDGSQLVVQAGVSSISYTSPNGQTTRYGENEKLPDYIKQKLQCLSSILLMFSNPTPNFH

Experiment [7] addresses FGFR2 (Homo sapiens, UniProt P21802). To be noted: for Inhibition at 1 µM (%): FGFR2, ZLYTE, ATP Km app.
[8] abbreviates: 1 h, 1 μM WEL028, 1 h preincubation.

By inhibition is commonly meant the share of the control response that was lost under treatment. For orientation: Inhibition means the drop in the measured response relative to a control, in per cent. As usually defined, the IC50 is the concentration that inhibits the measured activity by half.

Several values for one entry are separate records, joined by “and”; a condition that tells them apart may be missing. Equal values may be shown once. Read-outs that look alike come from different tables or passages of the source.

FGFR2, sequence (P21802 22-821): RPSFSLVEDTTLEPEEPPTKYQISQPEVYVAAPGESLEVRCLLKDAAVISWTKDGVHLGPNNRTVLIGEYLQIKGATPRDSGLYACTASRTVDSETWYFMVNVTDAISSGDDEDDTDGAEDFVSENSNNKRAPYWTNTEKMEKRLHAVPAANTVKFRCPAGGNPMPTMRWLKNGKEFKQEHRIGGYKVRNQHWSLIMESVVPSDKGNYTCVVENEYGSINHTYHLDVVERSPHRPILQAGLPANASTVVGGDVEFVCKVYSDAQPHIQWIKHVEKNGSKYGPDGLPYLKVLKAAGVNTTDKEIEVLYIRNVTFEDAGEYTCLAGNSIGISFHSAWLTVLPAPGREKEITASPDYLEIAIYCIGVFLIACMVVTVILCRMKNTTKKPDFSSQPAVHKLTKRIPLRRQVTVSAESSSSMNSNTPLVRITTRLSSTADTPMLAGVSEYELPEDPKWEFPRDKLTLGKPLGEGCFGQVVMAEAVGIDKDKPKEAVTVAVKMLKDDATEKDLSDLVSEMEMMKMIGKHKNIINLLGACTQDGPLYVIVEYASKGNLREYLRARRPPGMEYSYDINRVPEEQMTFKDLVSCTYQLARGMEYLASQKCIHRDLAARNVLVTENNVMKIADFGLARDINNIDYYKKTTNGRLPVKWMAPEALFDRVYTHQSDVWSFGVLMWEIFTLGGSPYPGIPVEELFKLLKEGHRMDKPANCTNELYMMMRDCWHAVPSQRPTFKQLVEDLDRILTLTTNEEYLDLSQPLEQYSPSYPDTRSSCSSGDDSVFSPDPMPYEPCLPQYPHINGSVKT

`C#CCOc1ccc(Nc2ncc(Cl)c(Nc3ccccc3NC(=O)C=C)n2)c(OC)c1` [Compound 6]: the inhibition at 1 µM was 37% in experiment [1] (setting [8]); 33% in experiment [1] (read-out: Inhibition at 1 µM (%), AURKC (Aurora C), 1 µM, ZLYTE, ATP Km app); 9% in experiment [2] (setting [8]); 8% in experiment [2] (read-out: Inhibition at 1 µM (%), 1 µM, LanthaScreen Binding); 7% in experiment [3] (setting [8]); 8% in experiment [3] (read-out: Inhibition at 1 µM (%), 1 µM, ZLYTE, ATP Km app). Besides, the inhibition at 1 µM in experiment [4] (setting [8]) came out at 0%; in experiment [6] (setting [8]) it was 98%; in experiment [6] (read-out: Inhibition at 1 µM (%), PLK4, 1 µM, LanthaScreen Binding), 99%; in experiment [7] (setting [8]) it was 7%. Besides, the “Inhibition at 1 µM (%)” value in experiment [1] (AURKC (Aurora C), 1 µM, ZLYTE, ATP Km app, listed as WEL028, 1 µM) was 41%; in experiment [2] (1 µM, LanthaScreen Binding, listed as WEL028, 1 µM), 10%; in experiment [3] (1 µM, ZLYTE, ATP Km app, listed as WEL028, 1 µM), 6%; in experiment [4] (PIM3, 1 µM, ZLYTE, ATP Km app, listed as WEL028, 1 µM) it was -1% and 1%; in experiment [5] (CDK2/cyclin A, 1 µM, ZLYTE, ATP Km app, listed as WEL028, 1 µM) it was -5% and 0%; in experiment [7], 11%. The “Inhibition at 1 µM (%)” value in experiment [7] (listed as WEL028, 1 µM) came to 4%. Also, in experiment [5] (1 μM WEL028, 1 h preincubation), the “Inhibition (%)” value was -3%. In experiment [6], this molecule gave an IC50 of 0.0251 µM. Further, the Apparent fold selectivity in experiment [6] (IC50 on that kinase divided by IC50 on FES^S700C) was determined as 6 fold.

Source of the values: article PMC7316778 (Nature Communications, 2020).
